Reference: patent US7268126B2, “Polymorphic and amorphous forms of the phosphate salt of 8-fluoro-2-{4-[(methylamino)methyl]phenyl}-1,3,4,5-tetrahydro-6H-azepino[5,4,3-ce]indol-6-one” (Agouron Pharmaceuticals, Inc., priority 2004, dated 2007)
Read-outs that look alike come from different tables or passages of the source.

Columns and labels:
[1] = pH 5.4
[2] = physical and chemical storage stability of polymorphic forms; settings: for physically stable, duration: ambient condition
[3] = 40° C. under 75% relative humidity

**Q.** What does the source list for `CNCc1ccc(-c2[nH]c3cc(F)cc4c3c2CCNC4=O)cc1.O=P(O)(O)O` [Form II, phosphate salt of 8-fluoro-2-{4-[(methylamino)methyl]phenyl}-1,3,4,5-tetrahydro-6H-azepino[5,4,3-cd]indol-6-one]?
**A.** aqueous solubility [1]: 3.0 mg/mL; Solubility (pH 3): 0.46 mg/mL; Solubility (pH 4): 0.39 mg/mL; Solubility (pH 5): 0.37 mg/mL; Solubility (pH 6): 0.32 mg/mL; Solubility (pH 7): 0.25 mg/mL; Solubility (pH 8): 0.19 mg/mL; conversion to Form III (Hydrate B) ([2]; 25° C. under 90% relative humidity): overnight; conversion to Form III (Hydrate B) [2, 3]: after 1 week; physically stable, duration [2]: at least 3 months

**Q.** With `CNCc1ccc(-c2[nH]c3cc(F)cc4c3c2CCNC4=O)cc1.O=P(O)(O)O` [Form I, phosphate salt of 8-fluoro-2-{4-[(methylamino)methyl]phenyl}-1,3,4,5-tetrahydro-6H-azepino[5,4,3-cd]indol-6-one] as the compound, how does the aqueous solubility [1] read?
**A.** The aqueous solubility was 2.8 mg/mL.

**Q.** And the “conversion to Form III (Hydrate B)” value [2, 3]?
**A.** The value was “after one week”.

**Q.** And the “physically stable, duration” value [2]?
**A.** The value was “at least 3 months”.

**Q.** With `CNCc1ccc(-c2[nH]c3cc(F)cc4c3c2CCNC4=O)cc1.O=P(O)(O)O` [Form V, phosphate salt of 8-fluoro-2-{4-[(methylamino)methyl]phenyl}-1,3,4,5-tetrahydro-6H-azepino[5,4,3-cd]indol-6-one] as the compound, how does the “physically and chemically stable, duration” value ([2]; room temperature) read?
**A.** The value was “at least 3 months”.

**Q.** Which aqueous solubility [1] does the source give for `CNCc1ccc(-c2[nH]c3cc(F)cc4c3c2CCNC4=O)cc1.O=P(O)(O)O` [Form IV, phosphate salt of 8-fluoro-2-{4-[(methylamino)methyl]phenyl}-1,3,4,5-tetrahydro-6H-azepino[5,4,3-cd]indol-6-one] here?
**A.** The aqueous solubility was 4.5 mg/mL.

**Q.** For `CNCc1ccc(-c2[nH]c3cc(F)cc4c3c2CCNC4=O)cc1.O=P(O)(O)O` [Form III, phosphate salt of 8-fluoro-2-{4-[(methylamino)methyl]phenyl}-1,3,4,5-tetrahydro-6H-azepino[5,4,3-cd]indol-6-one], which aqueous solubility [1] is on record?
**A.** The aqueous solubility was 2.7 mg/mL.
